One molecule from publication PMC9241669, “Allantodapsone is a Pan-Inhibitor of Staphylococcus aureus Adhesion to Fibrinogen, Loricrin, and Cytokeratin 10” (Microbiology Spectrum, 2022) can be followed below.

The subject of one series is L. lactis ClfA. Nature of the series: Adhesion of L. lactis ClfA to immobilized fibrinogen. It counts as cell-based, Lactococcus lactis. The protocol:
FIG 1 Allantodapsone inhibits S. aureus Newman adhesion to fibrinogen. Dose response curves for S. aureus Newman (A), L. lactis ClfA (B), and L. lactis ClfB (C) adhesion to fibrinogen. Fibrinogen was used to coat plates at 4°C overnight at 10 μg/mL. Wells were washed with PBS and blocked with 1% BSA. Washed bacteria (OD600 of 1) were mixed with the relevant concentration of allantodapsone or vehicle control (DMSO) for 5 min, and added to the wells, incubating for 2 h at 37°C. Adherent cells were washed, fixed, and stained with crystal violet, and wells further washed. The dye was dissolved in acetic acid and the absorbance measured at 570 nm. IC50 values were generated using GraphPad Prism 9.0 GraphPad software, San Diego, CA. Data are representative of three experiments with error presented as SEM.
Adhesion assays were carried out according to Hartford et al. ([37]). Briefly, plates were coated with 10 μg/mL fibrinogen (Calbiochem, Darmstadt, Germany) or 20 μg/mL fibronectin (Sigma-Aldrich, Ireland) for 2 h at 37°C or for 16 h at 4°C. Plates were blocked with 1% BSA at 37°C for 1 h and washed 3 times in PBS. Washed bacteria were incubated at 37°C for 2 h. […] Plates were read at 570 nm on a Wallac Victor2, (Shelton, CT, USA). The minimum adhesion inhibitory concentration (MAIC) was determined as the concentration inhibiting greater than 90% bacterial adhesion. […]

In the next series the test system is U-937 cells. The format is cell-based, human. The settings on record: 100 μM, undifferentiated U-937 monocyte cells, n=2, preliminary. The procedure:
V. Microbiology: Materials and Methods
The MTT toxicity assay (1) (Vybrant MTT Cell Proliferation Assay, Molecular Probes, Or, USA) was used to measure cytotoxicity. Myeloid lineage, U-937 cells (2) were grown in RPMI-1640 (Gibco) culture medium supplemented with 10% foetal calf serum, 1% L-glutamine and 1% Penicillin/Streptomycin (Gibco). U-937 cells were centrifuged and cells diluted with fresh medium containing 1.2 mM MTT solution to a concentration of (5-6 x 10^6 per mL) and incubated at 37 °C for 2 h. Cells were centrifuged and the pellet dissolved in DMSO. The absorbance was read at 490 nm using the Wallac Victor2, (Shelton, Connecticut, USA).
Platelet aggregation was performed in platelet rich plasma according to O’Brien et al.
S. aureus Newman (stationary phase) was washed and diluted to an OD600 of 2.5.
This was mixed with 10 mg/mL of fibrinogen in 1:1 ratio resulting in a final concentration 5 mg/mL fibrinogen. Fibrinogen -bacteria aggregates clump and settle at the bottom of the tube resulting in a clear solution. These were compared to the turbid bacterial suspension in buffer by visual inspection. […]
was tested for toxicity using the MTT assay (VybrantTM MTT Cell Proliferation Assay, Molecular Probes, OR, USA). 10% DMSO is used as a positive control in this assay.
Allantodapsone was incubated with undifferentiated U-937 monocyte cells at 100
µM. […]

Values joined by “and” are separate entries in the source; they are usually repeats but may differ in a detail not shown here. Equal values may be shown once. Read-outs that look alike come from different tables or passages of the source.

As for `Nc1ccc(S(=O)(=O)c2ccc(NCN3C(=O)NC(=O)C(=O)C3=O)cc2)cc1` [Allantodapsone], the “minimum adhesion inhibitory concentration (MAIC)” value with L. lactis ClfA (L. lactis ClfA, fibrinogen) is 10 μM and 4.0 μg/mL. Besides, the IC50 in the series with L. lactis ClfA (Lactococcus lactis, read-out: IC50, inhibition of adhesion to fibrinogen) is 3.8 µM. Further, the figures for the “toxic effect on human cells, MTT (words)” value in the series with U-937 cells and in the series on U-937 cells (listed as allantodapsone) were “no toxic effect” and “no toxic effects”, respectively.
